The source of these data is patent US8933228B2, “Respiratory formulations and compounds for use therein” (Respivert, Ltd., priority 2010, dated 2015).

The target of one series is p38 MAPK alpha (MAPK14) (Homo sapiens (Human), UniProt Q16539). As to the kind of experiment: Enzyme inhibition assay (FRET, Z-LYTE), p38 MAPK alpha via MAPKAP-K2 activation. Format: biochemical. To be noted: read-out: Enzyme Profile: IC50 Values p38α. As for the experimental part: (§1) The enzyme inhibitory activity of test compounds was determined by fluorescence resonance energy transfer (FRET) using synthetic peptides labelled with both donor and acceptor fluorophores (Z-LYTE, Invitrogen). Recombinant, phosphorylated p38 MAPK γ (MAPK12:Millipore) was diluted in HEPES buffer, mixed with compound at the desired final concentrations and incubated for 2 hr at RT. The FRET peptide (2 μM) and ATP (100 μM) were next added to the enzyme/compound mixture and incubated for 1 hr. Development reagent (protease) was added for 1 hr prior to detection in a fluorescence microplate reader. The site-specific protease only cleaves non-phosphorylated peptide and eliminates the FRET signal. Phosphorylation levels of each reaction were calculated using the ratio of coumarin emission (donor) over fluorescein emission (acceptor) with high ratios indicating high phosphorylation levels and low ratios indicating low phosphorylation levels.
For p38 MAPK alpha (MAPK14: Invitrogen), enzyme activity was evaluated indirectly by determining activation/phosphorylation of the down-stream molecule, MAPKAP-K2. The p38 MAPK a protein was mixed with compound for 2 hr at RT. […] Development reagent was then added and the mixture incubated for 1 hr before detection by fluorescence completed the assay protocol.
The enzyme inhibitory activity of compound was determined by fluorescence resonance energy transfer (FRET) using synthetic peptides labelled with both donor and acceptor fluorophores (Z′-LYTE, Invitrogen).

For a further series, the target named is p38 MAPK γ (MAPK12) (Homo sapiens (Human), UniProt P53778). The experiment in a line: Enzyme inhibition assay (FRET, Z-LYTE), p38 MAPK gamma. Format: biochemical. To be noted: read-out: Enzyme Profile: IC50 Values p38γ. As to the method:
as §1

A further series deals with HCK enzyme (Homo sapiens (Human), UniProt P08631). As to the kind of experiment: HCK enzyme inhibition assay (FRET, Z'-LYTE). Format: biochemical. To be noted: read-out: Enzyme Profile: IC50 Values HCK.
The target of a further series is cSrc enzyme (Homo sapiens (Human), UniProt P12931). As to the kind of experiment: c-SRC enzyme inhibition assay (FRET, Z'-LYTE). To be noted: read-out: Enzyme Profile: IC50 Values cSrc. Format: biochemical.
For series [1], the system named is TNFα release in THP-1 cells. The experiment in a line: LPS-induced TNFα release in THP-1 cells. Format: cell-based. Conditions: Homo sapiens; THP-1 cells, LPS 3 μg/mL, 4 hr; read-out: THP1 (LPS) TNFα IC50. As for the experimental part: The inhibition of TNFα production was calculated at each concentration by comparison with vehicle control.
Series [2] concerns TNFα release in d-U937 cells. As to the kind of experiment: LPS-induced TNFα release in d-U937 cells. Conditions: Homo sapiens, dU937, LPS 0.1 μg/mL, 4 hr, relative to 10 μg/mL BIRB796, read-out: d-U937 (LPS) TNFα REC50. Format: cell-based. As to the method:
(§2) U937 cells, a human monocytic cell line, were differentiated to macrophage-type cells by incubation with phorbol myristate acetate (PMA; 100 ng/mL) for 48 to 72 hr, whereupon the cells become adherent. […] Coli: O111:B4, Sigma) for 4 hr. The supernatant was collected for determination of TNFα and IL-8 concentrations by sandwich ELISA (Duo-set, R&D systems). […] The relative 50% effective concentration (REC50) was determined from the resultant concentration-response curve. The inhibition of IL-8 production was calculated at each concentration of test compound by comparison with vehicle control.

For series [3], the system named is IL-8 release in d-U937 cells. The experiment in a line: LPS-induced IL-8 release in d-U937 cells. Format: cell-based. To be noted: Homo sapiens, dU937; d-U937 cells, LPS 0.1 μg/mL, 4 hr; read-out: d-U937 (LPS) IL-8 IC50. As to the method: as §2
Series [4] deals with ICAM-1 expression in BEAS2B cells. The experiment in a line: Poly I:C-induced ICAM-1 induction in BEAS2B cells. Format: cell-based. To be noted: Homo sapiens, BEAS-2B; BEAS2B cells, poly I:C 1 μg/mL, 18 hr; read-out: BEAS2B (polyIC) ICAM1 IC50. As for the experimental part:
Poly I:C (1 μg/mL) (Invivogene Ltd., San Diego, Calif.) was transfected into BEAS2B cells (human bronchial epithelial cells, ATCC) with Oligofectamine (Invitrogen, Carlsbad, Calif.). Cells were pre-incubated with final concentrations of test compounds for 2 hr and the level of ICAM1 expression on the cell surface was determined by cell-based ELISA. […] The cells were washed with PBS-Tween and incubated with the secondary antibody (HRP-conjugated anti-rabbit IgG, Dako Ltd., Glostrup, Denmark).

For the next series, the system named is HRV16. As to the kind of experiment: Rhinovirus-titre assay. Format: cell-based, human rhinovirus. Conditions: HRV16; for inhibition at 0.04 µg/mL: Human rhinovirus sp., cell not marked b, test compounds 0.04 μg/mL per method (footnote b, 0.2 μg/mL), read-out: HRV titre (inhibitory %): % inhibition observed vs. HRV16 infection control; for NBEC (HRV) HRV titre Relative anti-viral activity: at 0.04 μg/mL vs. pleconaril at 0.1 μg/mL. As for the experimental part: MRC5 cells (human lung fibroblast, ATCC) were infected with 1 MOI (multiplicity of infection of 1.0) of HRV16 and incubated for 1 hr at 33° C. with gentle shaking to stimulate adsorption. The cells were then washed with PBS, fresh media was added and the cells were incubated for a further 96 hr. The supernatant was collected and 10-fold serial dilutions of virus containing supernatant were prepared. All titrations were performed by infecting confluent Hela cell monolayers with serially diluted supernatant (10^−1-10^−5) and assessing the cytopathic effect by visual inspection 4 days after infection. The amount of virus required to infect 50% of Hela cells was calculated in each treatment as TCID50. Test compounds (0.04 μg/mL) were added 2 hr before HRV infection and 1 hr after infection when non-infected HRV was washed out. The anti-HRV activity of each test compound was determined as the difference of the log TCID50 of HRV16 in the presence of the compound with the log TCID50 of HRV16 in the absence of compound. […]

For series [5], the system named is Differentiated U937 cells. The experiment in a line: MTT assay: cell viability. Format: cell-based, human. Conditions: 1 μg/ml; for d-U937 MTT Assay 4 h: 5% FCS; for d-U937 MTT Assay 24 h: 10% FCS. As for the experimental part: Differentiated U937 cells were pre-incubated with each test compound under two protocols: the first for 4 hr in 5% FCS and the second in 10% FCS for 24 h. The supernatant was replaced with 200 μL of new media and 10 μL of MTT stock solution (5 mg/mL) was added to each well. After incubation for 1 hr the media were removed, 200 μL of DMSO was added to each well and the plates were shaken lightly for 1 hr prior to reading the absorbance at 550 nm. The percentage loss of cell viability was calculated for each well relative to vehicle (0.5% DMSO) treatment. Consequently an apparent increase in cell viability for drug treatment relative to vehicle is tabulated as a negative percentage.
For orientation: Tetrazolium assays rely on reduction of a dye to a coloured formazan, in cell work by metabolically active cells.

Bounds are passed on as bounds.

Usually IC50 stands for the point on the concentration scale where inhibition reaches its midpoint. In general, inhibition refers to the change of the read-out against control, counted positive when it falls. For the molecule `CC(C)(C)c1cc(NC(=O)Nc2ccc(Oc3ccnc4[nH]c(=O)[nH]c34)c3ccccc23)n(-c2ccccc2)n1` [Example 2, 1-(3-tert-butyl-1-phenyl-1H-pyrazol-5-yl)-3-(4-(2-oxo-2,3-dihydro-1H-imidazo [4,5-b]pyridin-7-yloxy)naphthalen-1-yl) urea], the IC50 at p38 MAPK alpha (MAPK14) was 5 nM; at p38 MAPK γ (MAPK12), 67 nM; at HCK enzyme, less than 2 nM; on cSrc enzyme it was 36 nM; in series [1], 1.4 nM; in series [3], 7.5 nM. The IC50 in [4] is 9.8 nM. Further, the EC50 in series [2] was 3 nM. For the same molecule, the inhibition at 0.04 µg/mL in the series on HRV16 turned out to be 60%. Further, the “NBEC (HRV) HRV titre Relative anti-viral activity” value in the series on HRV16 worked out at 1. In addition, in series [5], the “d-U937 MTT Assay 4 h” value is “− (− and + indicate the result is below and above the no significant effect threshold, respectively (<30% inhibition at a concentration of 1 μg/ml))”. Also, the “d-U937 MTT Assay 24 h” value in series [5] is “− (− and + indicate the result is below and above the no significant effect threshold, respectively (<30% inhibition at a concentration of 1 μg/ml))”.
On to `Cc1ccc(-n2nc(C(C)(C)C)cc2NC(=O)Nc2ccc(Oc3ccnc4[nH]c(=O)n(C)c34)c3ccccc23)cc1` [Example 3, 1-(3-tert-butyl-1-p-tolyl-1H-pyrazol-5-yl)-3-(4-(1-methyl-2-oxo-2,3-dihydro-1H-imidazo[4,5-b]pyridin-7-yloxy)naphthalen-1-yl)urea], for which the IC50 was 1 nM on p38 MAPK alpha (MAPK14); 24 nM at p38 MAPK γ (MAPK12); 2 nM on HCK enzyme; 4 nM at cSrc enzyme; 0.7 nM in series [1]; 17 nM in series [3]. Moreover, the half-maximal inhibitory concentration (IC50) in [4] was 4.1 nM. For the same molecule, the EC50 in series [2] stood at 1.1 nM. The inhibition at 0.04 µg/mL in the series with HRV16 was found to be 36%. Also, the “NBEC (HRV) HRV titre Relative anti-viral activity” value in the series with HRV16 was 0.2. Besides, in series [5], the “d-U937 MTT Assay 4 h” value is “− (− and + indicate the result is below and above the no significant effect threshold, respectively (<30% inhibition at a concentration of 1 μg/ml))”. The “d-U937 MTT Assay 24 h” value in series [5] is “− (− and + indicate the result is below and above the no significant effect threshold, respectively (<30% inhibition at a concentration of 1 μg/ml))”.
Regarding `CC(C)(C)c1cc(NC(=O)Nc2ccc(Oc3ccnc4[nH]c(=O)[nH]c34)c3ncccc23)n(-c2ccccc2)n1` [Example 4, 1-(3-tert-butyl-1-phenyl-1H-pyrazol-5-yl)-3-(8-(2-oxo-2,3-dihydro-1H-imidazo [4,5-b]pyridin-7-yloxy)quinolin-5-yl) urea], the IC50 on p38 MAPK alpha (MAPK14) was found to be 18 nM; at p38 MAPK γ (MAPK12) it was 214 nM; on HCK enzyme, 7 nM; on cSrc enzyme, 0.9 nM; in series [1] it was 185 nM; in series [3], 378 nM. In addition, the IC50 in series [4] was 581 nM. For the same molecule, the EC50 in [2] is 171 nM. In addition, in the series with HRV16, the inhibition at 0.04 µg/mL was 60%. Besides, the “NBEC (HRV) HRV titre Relative anti-viral activity” value in the series on HRV16 is 0.7. Moreover, the “d-U937 MTT Assay 4 h” value in series [5] is “− (− and + indicate the result is below and above the no significant effect threshold, respectively (<30% inhibition at a concentration of 1 μg/ml))”. Besides, in series [5], the “d-U937 MTT Assay 24 h” value is “− (− and + indicate the result is below and above the no significant effect threshold, respectively (<30% inhibition at a concentration of 1 μg/ml))”.
As for `CC(C)(C)c1cc(NC(=O)Nc2ccc(Oc3ccnc4[nH]c(=O)cnc34)c3ccccc23)n(-c2ccccc2)n1` [Example 5, 1-(3-(tert-butyl)-1-phenyl-1H-pyrazol-5-yl)-3-(4-((3-oxo-3,4-dihydropyrido[2,3-b]pyrazin-8-yl)oxy)naphthalen-1-yl) urea], the IC50 on p38 MAPK alpha (MAPK14) stood at 2 nM; on p38 MAPK γ (MAPK12), 43 nM; on HCK enzyme, 3 nM; on cSrc enzyme, 5 nM; in series [1], 13 nM; in [3], 4.1 nM. Further, in series [4], the IC50 turned out to be 6.6 nM. Moreover, the EC50 in [2] stood at 6.2 nM. Moreover, the inhibition at 0.04 µg/mL in the series with HRV16 was determined as 36%. Moreover, the “d-U937 MTT Assay 4 h” value in series [5] is “− (− and + indicate the result is below and above the no significant effect threshold, respectively (<30% inhibition at a concentration of 1 μg/ml))”. Further, the “d-U937 MTT Assay 24 h” value in series [5] is “− (− and + indicate the result is below and above the no significant effect threshold, respectively (<30% inhibition at a concentration of 1 μg/ml))”.
Turning to `Cc1nc2c(Oc3ccc(NC(=O)Nc4cc(C(C)(C)C)nn4-c4ccccc4)c4ccccc34)ccnc2[nH]c1=O` [Example 7, 1-(3-(tert-butyl)-1-phenyl-1H-pyrazol-5-yl)-3-(4-((2-methyl-3-oxo-3,4-dihydropyrido[2,3-b]pyrazin-8-yl)oxy)naphthalen-1-yl)urea], the IC50 at p38 MAPK alpha (MAPK14) stood at 3 nM; on p38 MAPK γ (MAPK12), 100 nM; on HCK enzyme it was 3 nM; at cSrc enzyme, 7 nM; in series [1], 7 nM; in [3] it was 4.2 nM. The IC50 in series [4] came out at 3 nM. In series [2], the EC50 came out at 1.7 nM. For the same molecule, in the series on HRV16, the inhibition at 0.04 µg/mL was 60%. In [5], the “d-U937 MTT Assay 4 h” value was “− (− and + indicate the result is below and above the no significant effect threshold, respectively (<30% inhibition at a concentration of 1 μg/ml))”. The “d-U937 MTT Assay 24 h” value in [5] is “− (− and + indicate the result is below and above the no significant effect threshold, respectively (<30% inhibition at a concentration of 1 μg/ml))”.
